Data on 18 compounds can be found in US20150344444A1, “BET-PROTEIN-INHIBITING DIHYDROXYQUINOXALINONES” (BAYER PHARMA AKTIENGESELLSCHAFT, priority 2012, published 2015).

The target in experiment [1] is T1, BRD4 Bromo Domain 1 [BRD4(1)] (Homo sapiens, UniProt O60885).
T1 construct: N-terminally His6-tagged BRD4(1) (amino acids 67-152); made in house; host or cells: E. coli
In words: BRD4(1)/acetylated peptide H4 binding assay (TR-FRET). The following applies: inhibition of interaction between His6-tagged BRD4(1) (amino acids 67-152) and acetylated histone H4 peptide. The text has this:
Protein-Protein Interaction Assay: BRD4/Acetylated Peptide H4 Binding Assay
1. Assay Description for BRD4 Bromo Domain 1 [BRD4(1)]
To assess the BRD4(1) binding strength of the substances described in this application, the ability thereof to inhibit the interaction between BRD4(1) and acetylated histone H4 in a dose-dependent manner was quantified.
For this purpose, a time-resolved fluorescence resonance energy transfer (TR-FRET) assay was used, which measures the binding between N-terminally His6-tagged BRD4(1) (amino acids 67-152) and a synthetic acetylated histone H4 (Ac-H4) peptide with sequence GRGK(Ac)GGK(Ac)GLGK(Ac)GGAK(Ac)RHGSGSK-biotin. The recombinant BRD4(1) protein produced in house according to Filippakopoulos et al., Cell, 2012, 149:214-231 was expressed in E. coli and purified by means of (Ni-NTA) affinity and (Sephadex G-75) size exclusion chromatography. The Ac-H4 peptide can be purchased, for example, from Biosyntan (Berlin, Germany).
In the assay, typically 11 different concentrations of each substance (0.1 nM, 0.33 nM, 1.1 nM, 3.8 nM, 13 nM, 44 nM, 0.15 μM, 0.51 μM, 1.7 μM, 5.9 μM and 20 μM) were analysed as duplicates on the same microtitre plate. For this purpose, 100-fold concentrated solutions in DMSO were prepared by serial dilutions (1:3.4) of a 2 mM stock solution into a clear, 384-well microtitre plate (Greiner Bio-One, Frickenhausen, Germany). From this, 50 nl were transferred into a black test plate (Greiner Bio-One, Frickenhausen, Germany). The test was started by the addition of 2 μl of a 2.5-fold concentrated BRD4(1) solution (final concentration typically 10 nM in the 5 μl of reaction volume) in aqueous assay buffer [50 mM HEPES pH 7.5, 50 mM sodium chloride (NaCl), 0.25 mM CHAPS and 0.05% serum albumin (BSA)] to the substances in the test plate. This was followed by a 10-minute incubation step at 22° C. for the pre-equilibration of putative complexes between BRD4(1) and the substances.
The mixture was then incubated in the dark at 22° C. for one hour and then at 4° C. for at least 3 hours and for no longer than overnight. The formation of BRD4(1)/Ac-H4 complexes was determined by the measurement of the resonance energy transfer from the streptavidin-Eu cryptate to the anti-6His-XL665 antibody present in the reaction. For this purpose, the fluorescence emission was measured at 620 nm and 665 nm after excitation at 330-350 nm in a TR-FRET measuring instrument, for example a Rubystar or Pherastar (both from BMG Lab Technologies, Offenburg, Germany) or a Viewlux (Perkin-Elmer). The ratio of the emissions at 665 nm and at 622 nm was taken as an indicator of the amount of BRD4(1)/Ac-H4 complexes formed.
The data (ratios) obtained were normalized, with 0% inhibition corresponding to the mean from the measurements for a set of controls (typically 32 data points) in which all the reagents were present. In these, in place of test substances, 50 nl of DMSO (100%) were used Inhibition of 100% corresponded to the mean from the measurements for a set of controls (typically 32 data points) in which all the reagents except BRD4(1) were present. The IC50 was determined by regression analysis based on a 4-parameter equation (minimum, maximum, IC50, Hill; Y=max+(min−max)/(1+(X/IC50)Hill).
(In general: Time-resolved FRET reads energy transfer from a long-lived donor to a nearby acceptor.)

The next experiment deals with B16F10 cells. Kind of experiment: B16F10 cell proliferation assay (alamarBlue). Type of experiment: cell-based. The following applies: B16-F10; inhibition of cell proliferation, 96 hours, mouse melanoma cell line. Here is the method:
In accordance with the invention, the ability of the substances to inhibit cell proliferation was determined Cell viability was determined by means of the alamarBlue® reagent (Invitrogen) in a Victor X3 Multilabel Reader (Perkin Elmer). The excitation wavelength was 530 nm and the emission wavelength […].
The B16F10 cells (ATCC, CRL-6475) were sown at a concentration of 300-500 cells/well in 100 μl of growth medium (DMEM with phenol red, 10% FCS) on 96-well microtitre plates.
After overnight incubation at 37° C., the fluorescence values were determined (CI values). Then the plates were treated with various substance dilutions (1E-5 M, 3E-6 M, 1E-6 M, 3E-7 M, 1E-7 M, 3E-8 M, 1E-8 M) and incubated at 37° C. over 96 hours (MOLM-13, B16F10 cells) or 120 hours (MOLP-8 cells). Subsequently, the fluorescence values were determined (CO values). For the data analysis, the CI values were subtracted from the CO values and the results were compared between cells which had been treated with various dilutions of the substance or only with buffer solution. The IC50 values (substance concentration needed for 50% inhibition of cell proliferation) were calculated therefrom.
B16F10 mouse melanoma cell line
A general note: The colour change of resazurin is a common sign of viable cells or microbes.

SMILES strings stand for the structures.

Consider `C[C@@H]1C(=O)N(C)c2ccc(Nc3ccc(C(=O)N4CCOCC4)cc3)cc2N1C1CCOCC1` [Example 27, (3R)-1,3-dimethyl-6-{[4-(morpholin-4-ylcarbonyl)phenyl]amino}-4-(tetrahydro-2H-pyran-4-yl)-3,4-dihydroquinoxalin-2(1H)-one], for which the half-inhibitory concentration (IC50) – broadly, the concentration that gives 50% inhibition – in experiment [1] worked out at 0.23 µM; in the experiment with B16F10 cells, 2.49 µM.

With `C[C@@H]1C(=O)N(C)c2ccc(Nc3ccc(S(=O)(=O)N4CCN(C)CC4)cc3)cc2N1C1CCOCC1` [Example 48, (3R)-1,3-dimethyl-6-({4-[(4-methylpiperazin-1-yl)sulphonyl]phenyl}amino)-4-(tetrahydro-2H-pyran-4-yl)-3,4-dihydroquinoxalin-2(1H)-one], the IC50 worked out at 0.237 µM in experiment [1] and 1.45 µM in the experiment with B16F10 cells.

`C[C@@H]1C(=O)N(C)c2ccc(Nc3ccc(C(=O)NC4CCN(C)CC4)cc3)cc2N1C1CCOCC1` [Example 26, 4-{[(3R)-1,3-dimethyl-2-oxo-4-(tetrahydro-2H-pyran-4-yl)-1,2,3,4-tetrahydroquinoxalin-6-yl]amino}-N-(1-methylpiperidin-4-yl)benzamide]: the IC50 in experiment [1] is 0.374 µM; in the experiment with B16F10 cells, 4.01 µM.

In the case of `C[C@@H]1C(=O)N(C)c2ccc(Nc3ccc(S(=O)(=O)N4CCOCC4)cc3)cc2N1Cc1ccccc1` [Example 13, (3R)-4-benzyl-1,3-dimethyl-6-{[4-(morpholin-4-ylsulphonyl)phenyl]amino}-3,4-dihydroquinoxalin-2(1H)-one], the concentration for half-maximal inhibition (IC50) in experiment [1] came out at 0.168 µM; with B16F10 cells, 0.136 µM.

Take `C[C@@H]1C(=O)N(C)c2ccc(Nc3ccc(C(=O)N4CC5(COC5)C4)cc3)cc2N1C1CCOCC1` [Example 29]: the half-inhibitory concentration (IC50) in experiment [1] was 0.185 µM; in the experiment with B16F10 cells it was 2.71 µM.

As for `C[C@@H]1C(=O)N(C)c2ccc(Nc3ccc(C(=O)N(C)C)cc3)cc2N1C1CCCC1` [Example 8, 4-{[(3R)-4-cyclopentyl-1,3-dimethyl-2-oxo-1,2,3,4-tetrahydroquinoxalin-6-yl]amino}-N,N-dimethylbenzamide], the IC50 is 0.098 µM in experiment [1] and 0.584 µM in the experiment on B16F10 cells.

Regarding `COc1ccc(CN2c3cc(Nc4ccc(C(=O)N5CCN(C(C)C)CC5)cc4)ccc3N(C)C(=O)[C@H]2C)cc1` [Example 22, (3R)-4-(4-methoxybenzyl)-1,3-dimethyl-6-[(4-{[4-(propan-2-yl)piperazin-1-yl]carbonyl}phenyl)amino]-3,4-dihydroquinoxalin-2(1H)-one], the IC50 in experiment [1] is 0.175 µM; in the experiment on B16F10 cells, 0.522 µM.

For `C[C@@H]1C(=O)N(C)c2ccc(Nc3ccc(C(=O)NC4CCN(C)CC4)cc3)cc2N1Cc1ccccc1` [Example 11, 4-{[(3R)-4-benzyl-1,3-dimethyl-2-oxo-1,2,3,4-tetrahydroquinoxalin-6-yl]amino}-N-(1-methylpiperidin-4-yl)benzamide], the values for the concentration for half-maximal inhibition (IC50) (in experiment [1]; with B16F10 cells) were 0.239 µM and 0.768 µM, respectively.

As for `C[C@@H]1C(=O)N(C)c2ccc(Nc3ccc(C(=O)N4CC5(CCS5(=O)=O)C4)cc3)cc2N1C1CCOCC1` [Example 31, (3R)-6-({4-[(1,1-dioxido-1-thia-6-azaspiro[3.3]hept-6-yl)carbonyl]phenyl}amino)-1,3-dimethyl-4-(tetrahydro-2H-pyran-4-yl)-3,4-dihydroquinoxalin-2(1H)-one], the concentration for half-maximal inhibition (IC50) in experiment [1] worked out at 0.192 µM; in the experiment with B16F10 cells, 3.24 µM.

With `C[C@@H]1C(=O)N(C)c2ccc(Nc3ccc(S(=O)(=O)N(C)C)cc3)cc2N1C1CCCCCC1` [Example 45, 4-{[(3R)-4-cycloheptyl-1,3-dimethyl-2-oxo-1,2,3,4-tetrahydroquinoxalin-6-yl]amino}-N,N-dimethylbenzenesulphonamide], the concentration for half-maximal inhibition (IC50) in experiment [1] came to 0.264 µM; in the experiment with B16F10 cells it was 1.57 µM.

For the compound `C[C@@H]1C(=O)N(C)c2ccc(Nc3ccc(C(=O)NC4CCN(C)CC4)cc3)cc2N1Cc1c(F)cccc1F` (stereo in doubt) [Example 39, 4-{[4-(2,6-difluorobenzyl)-1,3-dimethyl-2-oxo-1,2,3,4-tetrahydroquinoxalin-6-yl]amino}-N-(1-methylpiperidin-4-yl)benzamide], the half-maximal inhibitory concentration (IC50) in experiment [1] was 1.04 µM; in the experiment on B16F10 cells it was 3.28 µM.

For `C[C@@H]1C(=O)N(C)c2ccc(Nc3ccc(C(=O)N4CC5(CCS5(=O)=O)C4)cc3)cc2N1Cc1ccccc1` [Example 16, (3R)-4-benzyl-6-({4-[(1,1-dioxido-1-thia-6-azaspiro[3.3]hept-6-yl)carbonyl]phenyl}amino)-1,3-dimethyl-3,4-dihydroquinoxalin-2(1H)-one], the concentration for half-maximal inhibition (IC50) in experiment [1] was 0.257 µM; in the experiment on B16F10 cells it was 0.251 µM.

Regarding `C[C@@H]1C(=O)N(C)c2ccc(Nc3ccc(C(=O)NC4CCC(N5CCN(CC6CC6)CC5)CC4)cc3)cc2N1Cc1c(F)cccc1F` (stereo in doubt) [Example 40, N-{4-[4-(cyclopropylmethyl)piperazin-1-yl]cyclohexyl}-4-{[4-(2,6-difluorobenzyl)-1,3-dimethyl-2-oxo-1,2,3,4-tetrahydroquinoxalin-6-yl]amino}benzamide], the values for the 50% inhibitory concentration (IC50) (in experiment [1]; in the experiment on B16F10 cells) were 1.28 µM and 4.98 µM, respectively.

Consider `COc1ccc(CN2c3cc(Nc4ccc(C(=O)NCCN5CCN(C)CC5)cc4)ccc3N(C)C(=O)[C@H]2C)cc1` [Example 21, 4-{[(3R)-4-(4-methoxybenzyl)-1,3-dimethyl-2-oxo-1,2,3,4-tetrahydroquinoxalin-6-yl]amino}-N-[2-(4-methylpiperazin-1-yl)ethyl]benzamide], for which the IC50 in experiment [1] is 0.108 µM; in the experiment on B16F10 cells it was 0.403 µM.

Turning to `C[C@@H]1C(=O)N(C)c2ccc(Nc3ccc(S(=O)(=O)N(C)C)cc3)cc2N1C1CCCC1` [Example 3, 4-{[(3R)-4-cyclopentyl-1,3-dimethyl-2-oxo-1,2,3,4-tetrahydroquinoxalin-6-yl]amino}-N,N-dimethylbenzenesulphonamide], the IC50 in experiment [1] was found to be 0.063 µM; with B16F10 cells, 0.327 µM.

For `C[C@@H]1C(=O)N(C)c2ccc(Nc3ccc(S(=O)(=O)N4CCOCC4)cc3)cc2N1C1CCOCC1` [Example 47, (3R)-1,3-dimethyl-6-{[4-(morpholin-4-ylsulphonyl)phenyl]amino}-4-(tetrahydro-2H-pyran-4-yl)-3,4-dihydroquinoxalin-2(1H)-one], the IC50 worked out at 0.095 µM in experiment [1] and 0.423 µM in the experiment with B16F10 cells.

On to `CC(=O)N1CCC(NC(=O)c2ccc(Nc3ccc4c(c3)N(C3CCOCC3)[C@H](C)C(=O)N4C)cc2)CC1` [Example 32, N-(1-acetylpiperidin-4-yl)-4-{[(3R)-1,3-dimethyl-2-oxo-4-(tetrahydro-2H-pyran-4-yl)-1,2,3,4-tetrahydroquinoxalin-6-yl]amino}benzamide], for which the IC50 in experiment [1] worked out at 0.371 µM; in the experiment with B16F10 cells it was 6.42 µM.

Turning to `C[C@@H]1C(=O)N(C)c2ccc(Nc3ccc(S(=O)(=O)N(C)C)cc3)cc2N1Cc1ccccc1` [Example 14, 4-{[(3R)-4-benzyl-1,3-dimethyl-2-oxo-1,2,3,4-tetrahydroquinoxalin-6-yl]amino}-N,N-dimethylbenzenesulphonamide], the results for the IC50 (in experiment [1]; in the experiment with B16F10 cells) were 0.283 µM and 0.178 µM, respectively.
